Assay results as given in ChEMBL document CHEMBL1129720, “(S)-4-amino-5-chloro-3-iodo-2-methoxy-N-(1-azabicyclo[2.2.2]oct-3-yl)benzamide (TRIZAC), a high-affinity ligand for the 5-HT-3 receptor” (Bioorg Med Chem Lett, 1996).

How the values were obtained:
[1] = target: T1, 5-hydroxytryptamine receptor 3A (Rattus norvegicus, UniProt P35563); test: Compound was tested for its binding affinity towards 5-hydroxytryptamine 3 receptor in whole rat brain using [125I]DAIZAC as the radioligand.
T1 sequence (P35563 whole entry): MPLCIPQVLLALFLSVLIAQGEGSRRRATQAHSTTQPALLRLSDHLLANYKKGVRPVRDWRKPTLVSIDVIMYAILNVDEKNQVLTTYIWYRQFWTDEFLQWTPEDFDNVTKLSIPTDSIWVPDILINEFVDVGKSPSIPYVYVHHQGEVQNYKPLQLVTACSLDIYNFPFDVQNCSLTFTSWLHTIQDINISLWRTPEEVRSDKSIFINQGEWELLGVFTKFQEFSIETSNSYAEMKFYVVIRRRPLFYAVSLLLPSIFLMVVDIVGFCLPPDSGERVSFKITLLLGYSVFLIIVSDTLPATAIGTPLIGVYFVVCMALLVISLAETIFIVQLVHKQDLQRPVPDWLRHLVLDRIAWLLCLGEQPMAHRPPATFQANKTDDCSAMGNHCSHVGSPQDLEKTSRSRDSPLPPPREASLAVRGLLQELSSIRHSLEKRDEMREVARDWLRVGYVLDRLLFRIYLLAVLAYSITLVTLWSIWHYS

[2] = target: T1, 5-hydroxytryptamine receptor 3A; test: Compound was tested in vitro for its antagonistic activity against 5-hydroxytryptamine 3 receptor in rat CNS.; format: functional
[3] = target: T1, 5-hydroxytryptamine receptor 3A; test: Compound was tested for its binding affinity towards 5-hydroxytryptamine 3 receptor in whole rat brain using (S)-[125I]-zacopride as the radioligand.
[4] = target: T1, 5-hydroxytryptamine receptor 3A; test: Compound was tested for its antagonistic activity against 5-hydroxytryptamine 3 receptor in rat brain using [3H]zacopride as the radioligand.; format: functional, tissue-based
[5] = target: T1, 5-hydroxytryptamine receptor 3A; test: Compound was tested in vitro for its antagonistic activity against 5-hydroxytryptamine 3 receptor; format: functional
[6] = Apparent lipophilicity value of the compound.; format: physicochemical; settings: octanol/water
[7] = target: T1, 5-hydroxytryptamine receptor 3A; test: Compound was tested for its binding affinity towards 5-hydroxytryptamine 3 receptor
[8] = target: T1, 5-hydroxytryptamine receptor 3A; test: Compound was tested for its binding affinity towards 5-HT-3 receptor in whole rat brain using (S)-[125I]-zacopride as the radioligand.

COc1cc(N)c(I)cc1C(=O)NC1CN2CCC1CC2 (centres undefined)
Ki [1]: 1.37 nM | Kd [2]: 2.6 nM | Ki [3]: 1.07 nM

COc1cc(N)c(Cl)cc1C(=O)NC1CN2CCC1CC2 (centres undefined) [ZACOPRIDE]
Kd [4]: 0.6 nM

COc1c(I)cc(Cl)cc1C(=O)N[C@@H]1CN2CCC1CC2
Kd [5]: 0.15 nM

COc1c(C(=O)N[C@@H]2CN3CCC2CC3)cc(Cl)c(N)c1I
Ki [1]: 0.075 nM | logD [6]: 2.12 | Ki [7]: 0.05 nM | Ki [8]: 0.052 nM
